Assay results as given in US9643951B2, “Compound having somatostatin receptor agonistic activity and pharmaceutical use thereof” (ONO PHARMACEUTICAL CO., LTD., priority 2013, dated 2017).

Tests used:
human SSTR2 = biological target: T1, human SSTR2 (Homo sapiens, UniProt P30874); assay: Evaluation of SSTR2 agonistic activity using cells expressing human SSTR2 (suppression of forskolin-stimulated cAMP production, SSTR2-CHO-K1); assay type: cell-based
T1 construct: Myc; expressed in transfected cells
T1 sequence (P30874 whole entry): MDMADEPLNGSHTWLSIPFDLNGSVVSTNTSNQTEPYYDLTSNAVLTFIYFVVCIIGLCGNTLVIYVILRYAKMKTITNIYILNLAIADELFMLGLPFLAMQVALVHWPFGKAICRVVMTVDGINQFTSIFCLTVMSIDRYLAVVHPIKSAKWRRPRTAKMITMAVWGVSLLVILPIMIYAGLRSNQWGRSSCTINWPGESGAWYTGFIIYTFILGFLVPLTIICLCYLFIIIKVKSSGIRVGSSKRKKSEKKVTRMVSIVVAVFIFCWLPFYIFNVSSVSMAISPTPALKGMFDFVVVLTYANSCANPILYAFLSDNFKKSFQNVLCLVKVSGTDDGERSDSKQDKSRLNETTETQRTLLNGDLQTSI
Method: Evaluation of SSTR2 Agonistic Activity Using Cells Expressing Human SSTR2
(1) Isolation of Human SSTR2 Gene
Human brain cDNA was purchased from Ambion (catalogue No.: 7962; Lot No.: 040200121). PCR primers, hSSTR2_F1_XhoI: 5′-[…]-3′ (SEQ ID NO: 1) and hSSTR2_R1_EcoRI: 5′-[…]-3′ (SEQ ID NO: 2) were designed on the basis of the sequence GenBank NM_001050.
PCR reaction (95° C. for 2 min.→[98° C. for 10 sec., 60° C. for 30 sec. and 68° C. for 90 sec.]×30 cycles) was carried out using the human brain cDNA as a template and using KOD-plus-(TOYOBO Co., Ltd.). The amplified PCR product was subjected to 1% agarose gel electrophoresis, purified using QIAquick Gel Extraction Kit (QIAGEN) and digested with restriction enzymes XhoI and EcoRI. The digested fragments were ligated to an expression vector (pIRESneo-Myc) using the DNA Ligation Kit Ver. 2 (Takara) and used for transformation of E. coli DH5a. The plasmid pIRESneo-Myc/hSSTR2 was prepared and the DNA sequence thereof was confirmed.
(2) Culture of CHO-K1 Cells
CHO-K1 (−) was cultured in Ham's F-12 medium (containing foetal bovine serum (10%), penicillin (100 U/mL) and streptomycin (0.1 mg/mL)). The transduced cells were cultured in the same medium supplemented with Geneticin (1 mg/mL).
(3) Transduction of CHO-K1 Cells
CHO-K1(−) cells were transduced with the plasmid pIRESneo-Myc/hSSTR2 using Lipofectamine 2000 (Invitrogen). After 48 hours, selection was carried out by replacing the medium with the one containing 1 mg/mL of Geneticin to establish a stable overexpressing cell line (SSTR2-CHO-K1).
(4) Evaluation of SSTR2 Agonistic Activity
The human SSTR2 agonistic activity of a test compound was evaluated according to the following procedures by using a suppression activity of intracellular cyclic AMP (cAMP) production by forskolin stimulation as an index. SSTR2-CHO-K1 cells suspended in Ham's F-12 medium (containing foetal bovine serum (10%), penicillin (100 U/mL) and streptomycin (0.1 mg/mL)) supplemented with 0.25 mg/mL of Geneticin were inoculated into a 96-well plate at a density of 4.0×10^4 cells/0.1 mL per well. On the next day, the medium was removed and washed twice with 0.1 mL of wash buffer [0.1% bovine serum albumin (BSA), 20 mmol/L 4-(2-hydroxyethyl)-1-piperazineethane sulphonic acid (HEPES)-containing Hank's balanced salt solution (HBSS)]. An assay buffer [[…] 3-isobutyl-1-methylxanthine (IBMX), 0.1% BSA, 20 mmol/L HEPES-containing HBSS] was added to the wells at 0.06 mL per well and the plate was incubated for 15 minutes under the conditions of 5% carbon dioxide and 37° C. Thereafter, an assay buffer containing a test compound at a concentration twice as high as the final concentration and 0.02 mmol/L of forskolin was added to wells at 0.06 mL per well and the plate was incubated for 30 minutes under the conditions of 5% carbon dioxide and 37° C. Thereafter, the Assay/Lysis buffer included in the cAMP-Screen® kit (available from Applied Biosystems) was added to wells at 0.12 mL per well and the plate was incubated for 30 minutes under the conditions of 5% carbon dioxide and 37° C. The concentration of cAMP in samples were measured by ELISA according to the instruction of the kit.

[1] = system: growth hormone (GH) secretion; assay: Evaluation of suppression of growth hormone (GH) secretion using rats (GHRH-induced); assay type: in vivo; settings: Rattus norvegicus, Procedure (B): oral administration 8 hours beforehand, 1 mg/kg, read-out: percentage of suppression of GH secretion
Method: Evaluation of Suppression of Growth Hormone (GH) Secretion Using Rats
[Procedure (A): Administration of a Test Compound 30 Minutes Beforehand]
A medium (distilled water (Otsuka distilled water, Otsuka Pharmaceutical Factory, […]) IGS rats (Charles River Laboratories Japan, Inc.)) and after 27 minutes, the animals were administered with 50 mg/kg of pentobarbital sodium (Somnopentyl, Kyoritsu Seiyaku Corporation) via the tail vein for anaesthesia. Three minutes after administration of pentobarbital sodium, the rats were administered with 0.01 mg/kg of growth hormone-releasing hormone (GHRH, Bachem) via the tail vein to induce GH secretion. In order to measure the blood GH concentration, 0.2 mL of blood was collected through the jugular vein at 5 minutes after administration of GHRH. The collected blood was centrifuged at 4° C., 13,000×g for 5 minutes to obtain plasma. The blood GH concentration was measured by using Rat/Mouse Growth Hormone ELISA (Millipore) following the instruction of the kit. The percentage (%) of suppression of GH secretion was determined by using the obtained blood GH concentration and the equation {[suppression (%) of GH secretion]=([blood GH concentration of the group administered with the medium]−[blood GH concentration of the group administered with a test compound])/[blood GH concentration of the group administered with the medium]×100}. In the equation, the group administered with the medium represents the group of animals administered with the medium and the group administered with a test compound represents the group of animals administered with a test compound dissolved in the medium.
[Procedure (B): Administration of a Test Compound 8 Hours Beforehand]
A medium (distilled water (Otsuka distilled water, Otsuka Pharmaceutical Factory, […]) IGS rats (Charles River Laboratories Japan, Inc.)) and after 7 hours and 57 minutes, the animals were administered with 50 mg/kg of pentobarbital sodium (Somnopentyl, Kyoritsu Seiyaku Corporation) via the tail vein for anaesthesia. Three minutes after administration of pentobarbital sodium, the rats were administered with 0.01 mg/kg of growth hormone-releasing hormone (GHRH, Bachem) via the tail vein to induce GH secretion. The rest of the procedure is the same as in [Procedure (A)] described above.

[2] = Evaluation of cytotoxicity using cultured human hepatocytes (intracellular ATP); assay type: cell-based; settings: read-out: IC50 of cytotoxicity (concentration at which 50% of the luminescence is suppressed)
Method: Evaluation of Cytotoxicity Using Cultured Human Hepatocytes
Frozen adhesive human hepatocytes were thawed, suspended in a hepatocellular medium (HCM) purchased from Lonza and inoculated to a 96-well plate coated with collagen. The culture medium of the hepatocytes cultured overnight in an incubator (5% carbon dioxide, 95% air, 37° C.) was exchanged to the medium containing a test compound at a concentration of 0, 12.5, 25, 50, 100, 200 or 400 (×10^−6 mol/L) and the cells were further cultured for 24 hours. Cytotoxicity was evaluated by measuring the intracellular ATP concentration. Specifically, using the Promega Celltiter-Glo luminescent assay kit available from Promega, cells were lysed in the assay buffer included in the kit and the concentration of ATP released from the cells was measured according to the luminescence resulting from luciferin-luciferase enzyme activity. The luminescence was measured on the SpectraMax plate reader from Molecular Devices. The extent of cytotoxicity of a test compound is represented by the concentration (IC50) of the compound at which 50% of the luminescence is suppressed.

[3] = Human hepatic microsome stability test; assay type: in vitro ADME; settings: human hepatic microsomes 1 mg/mL; 60 minutes; test compound 0.001 mmol/L; 37° C.
Method: Human Hepatic Microsome Stability Test
To a reaction vessel heated to 37° C. in a water bath, 0.392 mL of phosphate buffer (0.1 mol/L, pH 7.4) containing human hepatic microsomes (1 mg/mL, Xenotech) and NADPH-Co-factor (NADP+1.3 mmol/L, BD-Bioscience) was added and pre-incubated for 5 minutes. A 50% acetonitrile solution (0.008 mL) containing 0.05 mmol/L of a test compound was added thereto to initiate the enzyme reaction (final concentration of the test compound: 0.001 mmol/L). Immediately after initiation of the reaction and at 60 minutes thereafter, 0.050 mL of the reaction solution was respectively collected, which was immediately added to an acetonitrile solution (0.2 mL) containing an internal standard (45 nmol/L, 1-[3-(3,5-dimethylphenyl)-4-quinolinyl]-4-piperidineamine) to terminate the enzyme reaction.
The residual rate (%), which is indicative of stability of the test compound, was calculated using the ratio of peak areas between the test compound and the internal substance determined by LC/MS/MS (TSQ Quantum Discovery MAX, Thermo) analysis of the sample thus prepared by the above procedures followed by filtration, and the equation: {[residual rate (%)=[peak area of a test compound in a sample at 60 minutes after initiation of the reaction/peak area of the internal standard]/[peak area of the test compound in the sample immediately after initiation of the reaction/peak area of the internal standard]×100}.

| SMILES | EC50 (human SSTR2) [nM] | residual rate [3] [%] | inhibition in vivo at 1 mg/kg [1] [%] | IC50 at 24 h [2] [µM] |
| --- | --- | --- | --- | --- |
| NC1CCN(c2c(/C=C/c3cccc(Cl)c3)cncc2-c2cc(F)cc(Cl)c2)CC1 [Example 3(1), 1-{3-(3-chloro-5-fluorophenyl)-5-[(E)-2-(3-chlorophenyl)vinyl]-4-pyridinyl}-4-piperidineamine] | 0.11 | 50.3 | 86 | 19 |
| Fc1cccc(/C=C/c2cncc(-c3cc(Cl)cc(Cl)c3)c2N2CC[C@@H]3NCCO[C@H]3C2)c1 [Example 3(2), (4aS,8aS)-6-{3-(3,5-dichlorophenyl)-5-[(E)-2-(3-fluorophenyl)vinyl]-4-pyridinyl}octahydro-1H-pyrido[3,4-b][1,4]oxazine] | 0.097 | 48.4 | 84 | 17 |
| C/C(=C\c1cncc(-c2cc(Cl)cc(Cl)c2)c1N1CCC(N)CC1)c1cccc(F)c1 [Example 3, 1-{3-(3,5-dichlorophenyl)-5-[(1E)-2-(3-fluorophenyl)-1-propen-1-yl]-4-pyridinyl}-4-piperidineamine] | 0.04 | 85.2 | 88 | 36 |
| C/C(=C\c1cncc(-c2cc(Cl)cc(Cl)c2)c1N1CCC(N)CC1)c1cccc(C#N)c1 [Example 4, 3-{(1E)-1-[4-(4-amino-1-piperidinyl)-5-(3,5-dichlorophenyl)-3-pyridinyl]-1-propen-2-yl}benzonitrile] | 0.034 | 100.0 | 84 | 17 |
| CCNC1CCN(c2c(-c3ccc(C(F)(F)F)cc3)cncc2-c2cc(Cl)cc(Cl)c2)CC1 [Example 5(1), 1-{3-(3,5-dichlorophenyl)-5-[4-(trifluoromethyl)phenyl]-4-pyridinyl}-N-ethyl-4-piperidineamine] | 0.045 | 57.6 | 90 | 18 |

Continued, in another order:

| EC50 (human SSTR2) [nM] | residual rate [3] [%] | SMILES | inhibition in vivo at 1 mg/kg [1] [%] | IC50 at 24 h [2] [µM] |
| --- | --- | --- | --- | --- |
| 0.036 | 80.3 | CCNC1CCN(c2c(-c3ccc(C4(C#N)CC4)cc3)cncc2-c2cc(Cl)cc(Cl)c2)CC1 [Example 5(2), 1-(4-{5-(3,5-dichlorophenyl)-4-[4-(ethylamino)-1-piperidinyl]-3-pyridinyl}phenyl)cyclopropanecarbonitrile] | 90 | 22 |
| 0.028 | 67.7 | CCNC1CCN(c2c(-c3ccc(OC(F)F)cc3)cncc2-c2cc(Cl)cc(Cl)c2)CC1 [Example 5(3), 1-{3-(3,5-dichlorophenyl)-5-[4-(difluoromethoxy)phenyl]-4-pyridinyl}-N-ethyl-4-piperidineamine] | 96 | 10 |
| 0.021 | 74.9 | CCNC1CCN(c2c(-c3ccc(C(C)(C)C#N)cc3)cncc2-c2cc(Cl)cc(Cl)c2)CC1 [Example 5(4), 2-(4-{5-(3,5-dichlorophenyl)-4-[4-(ethylamino)-1-piperidinyl]-3-pyridinyl}phenyl)-2-methylpropanenitrile] | 89 | 17 |
| 0.071 | 88.6 | CCNC1CCN(c2c(/C=C(\C)c3cccc(F)c3)cncc2-c2cc(Cl)cc(Cl)c2)CC1 [Example 5(5), 1-{3-(3,5-dichlorophenyl)-5-[(1E)-2-(3-fluorophenyl)-1-propen-1-yl]-4-pyridinyl}-N-ethyl-4-piperidineamine] | 85 | 17 |
| 0.048 | 83.9 | CCNC1CCN(c2c(/C=C/c3cccc(C#N)c3)cncc2-c2cc(Cl)cc(Cl)c2)CC1 [Example 5(6), 3-[(E)-2-{5-(3,5-dichlorophenyl)-4-[4-(ethylamino)-1-piperidinyl]-3-pyridinyl}vinyl]benzonitrile] | 89 | 18 |
| 0.047 | 79.7 | CCNC1CCN(c2c(/C=C(\C)c3cccc(C#N)c3)cncc2-c2cc(Cl)cc(Cl)c2)CC1 [Example 5, 3-[(1E)-1-{5-(3,5-dichlorophenyl)-4-[4-(ethylamino)-1-piperidinyl]-3-pyridinyl}-1-propen-2-yl]benzonitrile] | 90 | 18 |
